{"source": "paper PMC6891447", "about": "“Andean Prumnopitys Andina (Podocarpacae) Fruit Extracts: Characterization of Secondary Metabolites and Potential Cytoprotective Effect” (Molecules, 2019)", "key": {"[1]": {"target": "T1, pancreatic lipase (Sus scrofa, UniProt P00591)", "T1 construct": "purchased Sigma-Aldrich L-3126; host or cells: porcine pancreas", "T1 sequence (P00591 1-450)": "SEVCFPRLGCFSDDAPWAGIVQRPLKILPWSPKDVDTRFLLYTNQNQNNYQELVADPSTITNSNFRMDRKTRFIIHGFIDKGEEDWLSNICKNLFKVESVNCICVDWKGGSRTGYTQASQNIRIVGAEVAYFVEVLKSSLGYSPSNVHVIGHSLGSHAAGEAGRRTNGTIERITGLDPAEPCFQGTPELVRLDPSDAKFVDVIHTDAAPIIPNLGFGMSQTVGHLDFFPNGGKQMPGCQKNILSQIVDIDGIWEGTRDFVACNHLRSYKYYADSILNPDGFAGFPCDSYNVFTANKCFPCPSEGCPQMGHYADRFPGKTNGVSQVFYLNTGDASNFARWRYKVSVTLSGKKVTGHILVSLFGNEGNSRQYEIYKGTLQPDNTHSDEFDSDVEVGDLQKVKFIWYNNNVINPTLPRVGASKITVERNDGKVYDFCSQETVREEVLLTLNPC", "assay": "Pancreatic lipase inhibition assay", "assay_type": "biochemical, porcine", "settings": "Sephadex fractions"}, "[2]": {"assay": "DPPH radical discoloration (scavenging) assay", "assay_type": "physicochemical", "method": "(§1) The antioxidant capacity of the extracts was evaluated by the discoloration of the DPPH radical, the ferric reducing power (FRAP), the scavenging of the ABTS radical (TEAC) and the oxygen radical absorbance capacity (ORAC). […] Trolox and quercetin were used as reference compounds. The DPPH, FRAP and TEAC assays were performed according to Jiménez-Aspee et al.. The ORAC assay was carried out following the methodology of Ou et al. with slight modifications. All determinations were carried out in triplicate and results are presented as mean values ± standard deviation (SD)."}, "[3]": {"target": "α-glucosidase (Saccharomyces cerevisiae, UniProt P53341)", "sequence (P53341 whole entry)": "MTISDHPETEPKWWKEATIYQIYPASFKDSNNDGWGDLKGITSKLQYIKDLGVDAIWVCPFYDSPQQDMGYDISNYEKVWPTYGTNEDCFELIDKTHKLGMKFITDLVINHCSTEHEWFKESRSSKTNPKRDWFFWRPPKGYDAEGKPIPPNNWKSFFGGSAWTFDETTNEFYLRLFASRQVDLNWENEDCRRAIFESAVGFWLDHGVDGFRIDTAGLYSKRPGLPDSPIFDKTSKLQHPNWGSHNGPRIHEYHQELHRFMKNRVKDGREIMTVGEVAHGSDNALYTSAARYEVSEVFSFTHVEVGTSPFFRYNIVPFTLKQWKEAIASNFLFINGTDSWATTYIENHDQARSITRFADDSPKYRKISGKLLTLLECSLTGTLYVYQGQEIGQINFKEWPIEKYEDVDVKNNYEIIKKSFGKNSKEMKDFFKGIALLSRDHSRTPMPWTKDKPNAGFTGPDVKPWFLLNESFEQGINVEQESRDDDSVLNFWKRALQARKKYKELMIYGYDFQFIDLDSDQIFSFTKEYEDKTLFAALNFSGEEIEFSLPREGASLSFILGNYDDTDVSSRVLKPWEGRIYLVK", "assay": "α-Glucosidase inhibition assay", "assay_type": "biochemical", "settings": "read-out: α-Glucosidase Inhibition (percentage of inhibition)", "text": "The chemicals, enzymes and reagents acquired from Sigma-Aldrich (St. Louis, MO, USA) were the following: α-amylase from porcine pancreas (A3176; EC 3.2.1.1), α-glucosidase from Saccharomyces cerevisiae (G5003; EC 3.2.1.20), acetic acid, AlCl3, Amberlite XAD7 HP, catechin, DPPH (2,2-diphenyl-1-picrylhydrazyl radical), 3,5-dinitrosalicylic acid, porcine pancreas lipase type II (L-3126; EC 3.1.1.3), Na2CO3, 4-nitrophenyl-α-D-glucopyranoside, p-nitrophenyl palmitate, p-anisaldehyde, quercetin, sodium acetate, starch, 2,4,6-tri(2-pyridyl)1,3,5-triazine (TPTZ), trichloracetic acid, thiobarbituric acid, and triton X-100. The following materials were purchased from Merck (Darmstadt, Germany): 6-hydroxy-2,5,7,8-tetramethylchroman-2-carboxylic acid (Trolox), ethyl acetate, FeCl3 × 6H2O, potassium sodium tartrate and HPLC-grade methanol. Pepsin A (P3271) was from US Biological (Salem, MA, USA). […]\nPotential inhibition of α-glucosidase by XAD7 extracts and fractions from the LH-20 column was tested under conditions that simulate, at least in part, those of the small intestine. […] Resulting enzyme activity was then measured by adding 20 µL of 5 mM p-nitrophenyl-α-D-glucopyranoside into the wells and incubating for additional 15 min at 37 °C. […] Final absorbance was measured at 415 nm in a Biotek ELx801 (Winooski, VT, USA) microplate reader. […]"}, "[4]": {"assay": "Oxygen radical absorbance capacity (ORAC) assay", "assay_type": "physicochemical", "method": "as §1"}, "[5]": {"assay": "Ferric reducing power (FRAP) assay", "assay_type": "physicochemical", "method": "as §1"}, "[6]": {"target": "T2, α-amylase (Sus scrofa, UniProt P00690)", "T2 construct": "purchased Sigma-Aldrich A3176; host or cells: porcine pancreas", "T2 sequence (P00690 16-511)": "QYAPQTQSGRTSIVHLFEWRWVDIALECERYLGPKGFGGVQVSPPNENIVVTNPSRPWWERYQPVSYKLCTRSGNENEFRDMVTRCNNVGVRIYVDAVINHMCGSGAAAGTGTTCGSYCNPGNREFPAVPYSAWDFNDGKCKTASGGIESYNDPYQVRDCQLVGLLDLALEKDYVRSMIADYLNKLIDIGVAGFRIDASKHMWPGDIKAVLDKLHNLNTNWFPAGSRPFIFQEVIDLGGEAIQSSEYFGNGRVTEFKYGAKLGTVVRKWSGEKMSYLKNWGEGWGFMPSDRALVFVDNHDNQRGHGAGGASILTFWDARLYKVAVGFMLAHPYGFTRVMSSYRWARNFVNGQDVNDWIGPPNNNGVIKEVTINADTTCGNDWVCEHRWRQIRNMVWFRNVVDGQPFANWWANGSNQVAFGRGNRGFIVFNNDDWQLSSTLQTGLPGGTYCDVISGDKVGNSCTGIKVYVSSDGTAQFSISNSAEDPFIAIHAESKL", "assay": "α-Amylase inhibition assay", "assay_type": "biochemical, porcine", "settings": "Sephadex fractions"}, "[7]": {"assay": "Scavenging of the ABTS radical (TEAC) assay", "assay_type": "physicochemical", "method": "as §1"}, "[8]": {"assay": "TBARS generation in turkey meat under simulated gastric digestion", "settings": "pH 3.0, 37 °C, 1 h", "method": "This assay was carried out according to Kanner et al., with slight modifications. Briefly, the simulated gastric fluid (SGF) contained final concentration of NaCl (0.2% w/v), pepsin (0.32% w/v) and 700 µL of HCl (37%), adjusted to a final volume of 100 mL with ultrapure water. Thirty grams of turkey meat were ground with 90 mL of the SGF solution for 1 min in a blender and adjusted to pH 3.0 with 100 µL of 7N HCl. Fifteen mL of the SGF-meat mixture was aliquoted in 100 mL Erlenmeyer flasks. The powdered extract was weighed and added to the homogenate (meat–liquid mixture) to achieve final concentrations ranging from 0–500 µg/mL in the 15 mL SGF-meat mixture. The P. andina sample consisted in a pool of the extracts from different collection years. The flasks were placed in a shaking water bath at 37 °C during 1 h. At the end of the incubation, 800 µL of the samples, controls (without extracts) and blanks (without meat) were centrifuged at 20,000× g for 15 min at 4 °C. Lipid peroxidation was determined quantifying TBARS. For this purpose, the supernatant resulting from the centrifugation (750 µL) was mixed with 750 µL of TBA solution (0.37% TBA, 15% trichloroacetic acid in 0.25 N HCl), and boiled during 20 min. The absorbance was determined at 532 nm. All determinations were carried out in triplicate and results are presented as IC50 values (μg extracts/mL) ±SD. […]"}, "[9]": {"system": "AGS cells", "assay": "Cytoprotection against H2O2-induced stress in AGS cells", "assay_type": "cell-based", "settings": "Homo sapiens, rutin 100 µg/mL, non-significant, H2O2 control 47.4%, read-out: Cell viability after H2O2 challenge", "method": "Human AGS gastric adenocarcinoma cells (ATCC CRL-1739, American Type Culture Collection, Manassas, VA, USA) were grown as monolayers in a humidified incubator with 5% CO2 in air at 37 °C in HamF-12 medium supplemented with 2 mM L-glutamine and 1.5 g/L sodium bicarbonate. The medium contained 10% heat inactivated fetal bovine serum (FBS), 100 IU/mL penicillin and 100 µg/mL streptomycin. Cells were plated at 25,000 cells/mL in 96-well plates, with 100 µL per well. Cells were counted by means of the trypan blue exclusion assay in a Neubauer chamber. All the cell-based experiments were carried out using a pool of the extracts from different collection years.\nConfluent cultures of AGS cells were incubated for 16 h with 100 µL of the different samples at concentrations ranging from 0 to 400 µg extract/mL). The flavonol rutin (100 µg/mL) was included in this assay for comparison purposes. The sample was dissolved in medium supplemented with 2% FBS and antibiotics. Culture medium was completely removed by vacuum aspiration at the end of the incubation, and cells were washed with 100 µL of PBS. […] Cell viability was determined by means of the MTT reduction assay, as described above. […] Each concentration of the assayed samples was evaluated in quintuplicate. Results are expressed as percentage of the 100% viability control."}, "[10]": {"system": "AGS cells", "assay": "Intracellular total antioxidant activity (TAA) in AGS cells", "assay_type": "cell-based, human", "settings": "rutin 100 µg/mL; non-significant", "method": "The TAA was carried out according to Ferrari et al.. AGS cells were plated at 25,000 cells/mL in 3 cm diameter Petri dishes. One day after confluence, AGS cells were pre-incubated overnight (16 h) with 3 mL of the pool of P. andina XAD7 extracts, in different concentrations (0–400 µg extract/mL). For comparison purposes, rutin (100 µg/mL) was also included in this experiment. All samples were prepared in medium supplemented with 2% FBS. Cells treated only with culture medium were used as the control of the basal antioxidant level. The next morning, cells were collected with a cell scraper and centrifuged at 900× g during 5 min. […]\nThe ABTS radical was prepared by mixing 5 mL of a 7.46 mM ABTS solution with 88 μL of a 140 mM potassium persulfate solution. […] At the end of the incubation, the solution was diluted with MeOH until an absorbance value of 0.700 ± 0.050 at 734 nm was reached. […] After 6 min, absorbance was measured at 734 nm in a UV–Vis spectrophotometer. The absorbance was interpolated and converted to Trolox equivalents using a Trolox calibration curve. […] All the determinations were carried out in triplicate and results were expressed as µmol Trolox equivalents/mg protein ±SD."}}, "note": "Read-outs that look alike come from different tables or passages of the source.", "data": [{"smiles": "CC(C)(O)CC[C@@H](O)[C@](C)(O)[C@H]1CC[C@@]2(O)C3=CC(=O)[C@@H]4C[C@@H](O)[C@@H](O)C[C@]4(C)[C@H]3CC[C@]12C", "note": "[20-hydroxyecdysone]", "values": [{"measurement": "Pancreatic Lipase Inhibition", "setting": "[1]", "value": "inactive"}, {"measurement": "DPPH assay activity", "setting": "[2]; isolated compound", "value": "inactive"}, {"measurement": "inhibition at 50 µg/mL", "setting": "[3]; at a concentration of 50 µg/mL, Sephadex fractions / isolated compounds", "value": "40.1 ± 1.3", "unit": "%"}, {"measurement": "ORAC value", "setting": "[4]; isolated compound", "value": "827.3 ± 30.9 µmol TE/g of sample"}, {"measurement": "FRAP value", "setting": "[5]; isolated compound", "value": "72.4 ± 7.9 µmol Trolox equivalents/g sample"}, {"measurement": "α-Amylase Inhibiton", "setting": "[6]", "value": "inactive"}, {"measurement": "TEAC assay activity", "setting": "[7]; isolated compound", "value": "inactive"}]}, {"smiles": "O=c1c(O)c(-c2ccc(O)c(O)c2)oc2cc(O)cc(O)c12", "note": "[Quercetin, quercetin, reference compound]", "values": [{"measurement": "DPPH (SC50)", "setting": "[2]; n = 3, mean ± SD", "value": "7.8 ± 0.3", "unit": "µg XAD7 Extract/mL"}, {"measurement": "ORAC", "setting": "[4]; n = 3, mean ± SD", "value": "22561.6 ± 808.8", "unit": "µmol TE/g XAD7 Extract"}, {"measurement": "FRAP", "setting": "[5]; n = 3, mean ± SD", "value": "1077.2 ± 16.4", "unit": "µmol TE/g XAD7 Extract"}, {"measurement": "TEAC", "setting": "[7]; n = 3, mean ± SD", "value": "8157.9 ± 22.1", "unit": "µM TE/g XAD7 Extract"}]}, {"smiles": "N=C(N)NN", "note": "[aminoguanidine, Aminoguanidine]", "values": [{"measurement": "IC50 of TBARS generation in turkey meat", "setting": "[8]", "value": "317.8 ± 20.4", "unit": "µg/mL"}]}, {"smiles": "C[C@@H]1O[C@@H](OC[C@H]2O[C@@H](Oc3c(-c4ccc(O)c(O)c4)oc4cc(O)cc(O)c4c3=O)[C@H](O)[C@@H](O)[C@@H]2O)[C@H](O)[C@H](O)[C@H]1O", "note": "[rutin, quercetin 3-O-rutinoside]", "values": [{"measurement": "Pancreatic Lipase Inhibition", "setting": "[1]", "value": "inactive"}, {"measurement": "inhibition at 50 µg/mL", "setting": "[3]", "value": "44.8 ± 1.6", "unit": "%"}, {"measurement": "viability at 100 µg/mL", "setting": "[9]", "value": 46.4, "unit": "%"}, {"measurement": "α-Amylase Inhibiton", "setting": "[6]", "value": "inactive"}, {"measurement": "Increase of total intracellular antioxidant activity (TAA) vs untreated controls", "setting": "[10]", "value": 48.6, "unit": "%"}]}]}
